Broadly, the Ki is the equilibrium dissociation constant of an inhibitor or competing ligand from its target.

The source of these data is ChEMBL document CHEMBL1135019, “New generation dopaminergic agents. Part 8: heterocyclic bioisosteres that exploit the 7-OH-2-(aminomethyl)chroman D(2) template” (Bioorg Med Chem Lett, 2002).

In experiment [1] the target is D(2) dopamine receptor (Rattus norvegicus) (UniProt P61169). The experiment in a line: Ratio D2 partial agonist, Ki(D2 Low)/Ki(D2 High), to compare a compounds estimated intrinsic activity.
Experiment [2] addresses D(2) dopamine receptor (Homo sapiens, UniProt P14416). The experiment in a line: biochemical.
Description: Affinity for the Dopamine receptor D2S was determined using membranes from CHO cells labeled with [3H]spiperone
The target of experiment [3] is T1, D(4) dopamine receptor (Homo sapiens, UniProt P21917).
T1 sequence (P21917 whole entry): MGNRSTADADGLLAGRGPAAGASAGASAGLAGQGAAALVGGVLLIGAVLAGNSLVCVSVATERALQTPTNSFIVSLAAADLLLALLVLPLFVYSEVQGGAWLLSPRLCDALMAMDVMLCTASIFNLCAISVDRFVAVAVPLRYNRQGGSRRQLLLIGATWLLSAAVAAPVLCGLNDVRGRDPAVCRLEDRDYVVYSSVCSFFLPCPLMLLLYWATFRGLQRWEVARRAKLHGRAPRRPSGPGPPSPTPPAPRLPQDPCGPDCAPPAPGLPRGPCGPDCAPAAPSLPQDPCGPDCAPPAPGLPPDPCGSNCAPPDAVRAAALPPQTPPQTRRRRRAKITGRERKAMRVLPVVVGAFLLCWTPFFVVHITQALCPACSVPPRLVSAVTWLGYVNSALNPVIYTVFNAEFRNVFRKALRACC
The experiment in a line: biochemical.
Description: Affinity for the Human Dopamine receptor D4 was determined using membranes from CHO cells labeled with [3H]spiperone

Experiment [4] concerns the target T2, D(2) dopamine receptor (Rattus norvegicus, UniProt P61169).
Description: Affinity of compound for Dopamine receptor D2 in rat striatal membrane determined for antagonist state (low affinity state, D2 Low) with [3H]spiperone (using ketanserin to exclude 5-HT2 receptor binding) in the presence of GTP and sodium
The target of experiment [5] is D(3) dopamine receptor (Homo sapiens, UniProt P35462). The experiment in a line: biochemical.
Description: Affinity for the Human Dopamine receptor D3 was determined using membranes from CHO cells labeled with [3H]spiperone
The target in experiment [6] is T2, D(2) dopamine receptor. This is another data set of the same source.
Description: Affinity of compound for D2 receptor in rat striatal membrane determined for agonist state (high affinity state, D2 High) [3H]quinpirole as radioligand (in the absence of GTP and sodium)

D(3) dopamine receptor, sequence (P35462 whole entry): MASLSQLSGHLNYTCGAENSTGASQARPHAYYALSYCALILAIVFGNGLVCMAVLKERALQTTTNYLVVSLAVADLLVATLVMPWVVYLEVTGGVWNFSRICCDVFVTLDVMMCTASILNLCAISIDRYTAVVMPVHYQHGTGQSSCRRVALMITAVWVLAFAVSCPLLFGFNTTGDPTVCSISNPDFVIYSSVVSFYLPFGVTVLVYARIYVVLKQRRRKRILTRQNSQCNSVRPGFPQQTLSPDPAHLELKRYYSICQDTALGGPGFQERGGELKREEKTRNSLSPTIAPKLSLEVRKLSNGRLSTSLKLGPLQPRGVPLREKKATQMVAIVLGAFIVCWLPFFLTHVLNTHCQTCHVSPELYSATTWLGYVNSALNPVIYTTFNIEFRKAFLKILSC
D(2) dopamine receptor (Rattus norvegicus), sequence (P61169 whole entry, looked up): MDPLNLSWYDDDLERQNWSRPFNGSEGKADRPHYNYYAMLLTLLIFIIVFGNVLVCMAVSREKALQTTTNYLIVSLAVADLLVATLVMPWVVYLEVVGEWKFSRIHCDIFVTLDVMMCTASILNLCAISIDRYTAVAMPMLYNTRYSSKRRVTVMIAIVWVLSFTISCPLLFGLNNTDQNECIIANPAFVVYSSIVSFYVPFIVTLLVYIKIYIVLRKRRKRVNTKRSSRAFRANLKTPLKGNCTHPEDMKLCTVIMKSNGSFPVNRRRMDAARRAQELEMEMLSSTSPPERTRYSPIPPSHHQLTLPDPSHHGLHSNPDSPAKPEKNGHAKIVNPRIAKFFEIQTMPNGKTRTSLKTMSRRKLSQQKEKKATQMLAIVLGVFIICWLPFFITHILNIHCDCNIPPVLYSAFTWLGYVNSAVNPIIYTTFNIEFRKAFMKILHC
T2 sequence (P61169 whole entry): as the sequence (P61169 whole entry, looked up) above
D(2) dopamine receptor (Homo sapiens, UniProt P14416), sequence (P14416 whole entry): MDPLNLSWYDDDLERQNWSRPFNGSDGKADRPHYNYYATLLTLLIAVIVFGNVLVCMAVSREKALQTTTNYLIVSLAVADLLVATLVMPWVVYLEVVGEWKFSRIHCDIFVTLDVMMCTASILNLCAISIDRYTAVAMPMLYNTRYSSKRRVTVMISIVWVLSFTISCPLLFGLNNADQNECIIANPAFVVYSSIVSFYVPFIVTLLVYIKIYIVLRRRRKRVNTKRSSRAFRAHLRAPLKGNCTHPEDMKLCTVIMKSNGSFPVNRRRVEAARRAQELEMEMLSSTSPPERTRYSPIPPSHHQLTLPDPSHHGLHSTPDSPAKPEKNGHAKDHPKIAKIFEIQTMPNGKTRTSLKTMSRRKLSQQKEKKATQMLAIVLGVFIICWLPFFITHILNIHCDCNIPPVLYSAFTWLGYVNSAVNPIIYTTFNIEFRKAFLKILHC

As for `FC(F)(F)c1nc2c3c(ccc2[nH]1)CCC(CNCc1ccccc1)O3` (racemic), the Ratio in experiment [1] was 11.

For the compound `O=c1[nH]c2ccc3c(c2[nH]1)OC(CNCc1ccccc1)CC3` (racemic), the Ki in experiment [2] is 5 nM; in experiment [3], 10 nM; in experiment [4] it was 7.01 nM; in experiment [5], 1 nM; in experiment [6] it was 0.14 nM.

For the compound `O=C1Cc2c(ccc3c2O[C@@H](CNCc2ccccc2)CC3)N1`, the Ki in experiment [2] stood at 9.3 nM; in experiment [3], 359 nM; in experiment [5], 2.4 nM. In experiment [1], the Ratio was 42.

As for `Oc1nc2c3c(ccc2[nH]1)CC[C@H](CNCc1ccccc1)O3`, in experiment [1], the Ratio is 69.

Regarding `O=c1[nH]c2ccc3c(c2[nH]1)O[C@@H](CNCc1ccccc1)CC3`, the Ki in experiment [2] is 3 nM; in experiment [3], 7 nM; in experiment [4], 4.81 nM; in experiment [5], 0.4 nM; in experiment [6], 0.07 nM.

Take `Oc1nc2c3c(ccc2[nH]1)CC[C@@H](CNCc1ccccc1)O3`: the Ratio in experiment [1] is 12.

For `Oc1nc2c3c(ccc2[nH]1)CCC(CNCc1ccccc1)O3` (racemic), in experiment [1], the Ratio was 50.

Regarding `FC(F)(F)c1nc2ccc3c(c2[nH]1)OC(CNCc1ccccc1)CC3` (racemic), the Ki in experiment [2] was found to be 132 nM; in experiment [3] it was 37 nM; in experiment [4], 65.1 nM; in experiment [5] it was 263 nM; in experiment [6] it was 5.75 nM.

`c1ccc(CNC[C@H]2CCc3ccc4[nH]ccc4c3O2)cc1`: the results for the Ki in experiment [2], in experiment [3] and in experiment [5] were 107 nM, 2170 nM and 34 nM, respectively. In experiment [1], the Ratio was 24.

On to `O=c1[nH]c2ccc3c(c2[nH]1)O[C@H](CNCc1ccccc1)CC3`, for which the Ki came to 67 nM in experiment [2]; 313 nM in experiment [3]; 67.5 nM in experiment [4]; 81 nM in experiment [5]; 5.45 nM in experiment [6].
